Key:
Format in all cases: cell-based, human
[1] = tested on: CRC cell lines; assay: miRNA expression (TaqMan miRNA assays) in CRC cell lines treated with RNA pol II inhibitor; conditions: 50 μg/ml α-amanitin for 7 hours (FIG. 9)
Description: (§1) Additional materials and methods. CRC Cell line: CACO2, HCT116, RKO, SW48, SW480, and SW620. Tissue specimens: A total of 59 formalin-fixed, paraffin-embedded (FFPE) primary CRC tissues and corresponding liver metastasis tissues were analyzed. 5-Aza-2′-deoxycytidine (5-aza-dC) treatment: CRC cell lines were treated with 2.5 μM 5-aza-dC for 72 hours. α-amanitin treatment: CRC cell lines were treated with 50 μg/ml α-amanitin, a RNA pol II inhibitor, for 7 hours. Methylation analysis: Methylation levels were analyzed by bisulfite pyrosequencing for quantitative methylation analysis using PSQ HS 96A pyrosequencing system (Qiagen) on bisulfite modified genomic DNA template. microRNAs expression analysis: Expression of miR-373 and miR-520c was analyzed using TaqMan miRNA assays.

[2] = tested on: CRC cell lines; assay: miRNA expression (TaqMan miRNA assays) in CRC cell lines treated with demethylating agent
Description: (§2) Cell lines and 5-aza-2-deoxy-cytidine treatment. Seven CRC cell lines, HCT116, RKO, SW48, Caco-2, HT29, SW480, and SW620 were obtained from the American Type Culture Collection (ATCC, Rockville, Md.). Cell lines were treated with 2.5 μM 5-Aza-2′-deoxycytidine (5-aza-dC; Sigma-Aldrich) for 72 hours, and fresh medium containing 5-aza-dC was replaced every 24 hours.
miRNA expression analysis. Expression of fourteen metastasis-related miRNAs (let-7i, miR-10b, miR-30b, miR-34a, miR-141, miR-200b, miR-200c, miR-203, miR-221, miR-320a, miR-373, miR-429, miR-518d, and miR-520c) was analyzed using TaqMan miRNA assays (Applied Biosystems Inc., Foster City, Calif.). Expression of RNU6B (Applied Biosystems Inc., Foster City, Calif.) and miR-16 were used as endogenous controls for cell lines and FFPE tissues, respectively.
as §1, with “5-Aza-2′-deoxycytidine (5-aza-dC) treatment: CRC cell lines were treated with 2.5 μM 5-aza-dC for 72 hours. α-amanitin treatment: CRC cell lines were treated with 50 μg/ml α-amanitin, a RNA pol II inhibitor, for 7 hours.” left out

[3] = tested on: CRC cell lines; assay: Alu methylation by quantitative bisulfite pyrosequencing in CRC cell lines treated with demethylating agent; conditions: for methylation status of global Alu repetitive element: 2.5 μM 5-aza-dC for 72 hours, pyrosequencing (FIG. 3)
Description: as §2
DNA methylation analysis. Methylation levels of repetitive sequences (global Alu and local Alu) were analyzed by quantitative bisulfite pyrosequencing using the PSQ HS 96A pyrosequencing system (Qiagen) following bisulfite modification of genomic DNA using EZ DNA methylation Gold Kits (Zymo Research), as described previously.
as §1

| SMILES | expression of miR-520c [1] | miR-373 transcription / activation [1] | miR-373 transcription / activation ([1]; listed as RNA polymerase II inhibitor) | expression of miR-373 ([2]; demethylating agent treatment) | expression of miR-520c ([2]; demethylating agent treatment (FIG. 6B)) | methylation status of global Alu repetitive element [3] | methylation status of global Alu repetitive element ([3]; listed as 5-azacytidine) | methylation of Alu element in miR-373 promoter region ([3]; 5Aza treatment) |
| --- | --- | --- | --- | --- | --- | --- | --- | --- |
| CC[C@H](C)[C@@H]1NC(=O)CNC(=O)[C@@H]2Cc3c([nH]c4cc(O)ccc34)[S+]([O-])C[C@@H](NC(=O)CNC1=O)C(=O)N[C@@H](CC(N)=O)C(=O)N1C[C@H](O)C[C@H]1C(=O)N[C@@H]([C@@H](C)[C@@H](O)CO)C(=O)N2 (stereo in doubt) [RNA pol II inhibitor, α-amanitin] | inhibited the expression | did not suppress activation | did not suppress | – | – | – | – | – |
| Nc1ncn([C@H]2C[C@H](O)[C@@H](CO)O2)c(=O)n1 [5-aza, 5-Aza-2′-deoxycytidine] | – | – | – | induced | induced | markedly demethylated | Global hypomethylation of Alu sequences was observed | demethylated |

From patent publication US10519506B2, “Identification of metastasis-specific miRNA and hypomethylation signatures in human colorectal cancer” (Baylor Research Institute, priority 2011, dated 2019)
